Experiments:
[1] = target: T1, human recombinant serotonin (5-Hydroxytryptamine) 5-HT2C receptor (Homo sapiens, UniProt P28335); experiment: Serotonin 5-HT2C radioligand binding ([3H]Mesulergine); conditions: compound at 1 μM; read-out: Serotonin (1 μM) 5-HT2C, percent inhibition of specific binding
T1 construct: expressed in transfected cells; host or cells: CHO-K1 cells
T1 sequence (P28335 33-458): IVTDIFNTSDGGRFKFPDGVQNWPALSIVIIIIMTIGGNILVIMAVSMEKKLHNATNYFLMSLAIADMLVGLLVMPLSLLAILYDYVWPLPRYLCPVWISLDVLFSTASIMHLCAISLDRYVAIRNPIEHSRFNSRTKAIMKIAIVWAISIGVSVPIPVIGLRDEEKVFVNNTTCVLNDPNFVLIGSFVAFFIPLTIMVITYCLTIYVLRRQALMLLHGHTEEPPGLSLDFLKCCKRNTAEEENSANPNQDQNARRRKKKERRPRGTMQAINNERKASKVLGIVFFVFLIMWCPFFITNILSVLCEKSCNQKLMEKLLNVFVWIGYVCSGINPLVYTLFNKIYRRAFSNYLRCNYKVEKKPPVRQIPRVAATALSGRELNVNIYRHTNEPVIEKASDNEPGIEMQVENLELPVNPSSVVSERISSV
Procedure, shortened: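 Membranes from CHO-K1 cells expressing human 5-HT2C, incubated with 1 nM [3H]mesulergine for 60 min at 25 °C in 50 mM Tris-HCl pH 7.4 with ascorbic acid and pargyline.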

[2] = target: T2, human recombinant adrenergic α1D receptor (Homo sapiens, UniProt P25100); experiment: Adrenergic alpha1D radioligand binding ([3H]Prozosin); conditions: compound at 1 μM; read-out: Adrenergic (1 μM) α1D, percent inhibition of specific binding
T2 construct: expressed in transfected cells; host or cells: HEK-293 cells
T2 sequence (P25100 1-572): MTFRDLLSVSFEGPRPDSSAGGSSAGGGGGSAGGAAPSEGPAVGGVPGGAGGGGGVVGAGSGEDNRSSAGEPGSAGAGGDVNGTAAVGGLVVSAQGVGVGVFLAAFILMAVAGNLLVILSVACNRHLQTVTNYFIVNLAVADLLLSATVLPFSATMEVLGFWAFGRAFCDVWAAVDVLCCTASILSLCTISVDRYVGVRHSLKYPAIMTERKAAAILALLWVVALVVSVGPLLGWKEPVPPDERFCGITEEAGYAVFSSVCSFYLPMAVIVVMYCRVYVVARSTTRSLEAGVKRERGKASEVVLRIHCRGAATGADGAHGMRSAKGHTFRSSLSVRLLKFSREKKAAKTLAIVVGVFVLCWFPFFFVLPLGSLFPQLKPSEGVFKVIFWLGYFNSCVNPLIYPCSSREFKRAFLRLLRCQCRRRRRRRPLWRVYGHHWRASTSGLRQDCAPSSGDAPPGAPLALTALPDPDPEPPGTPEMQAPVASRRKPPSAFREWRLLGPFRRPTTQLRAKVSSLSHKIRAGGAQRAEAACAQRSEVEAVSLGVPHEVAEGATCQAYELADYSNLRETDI
Description: To evaluate in radioligand binding assays the activity of compounds of the invention, human recombinant adrenergic α1D receptor expressed in human embryonic kidney (HEK-293) cells (Kenny, B. A. et al. Br. J. Pharmacol. 115(6):981, 1995) in a 50 mM Tris-HCl buffer, pH 7.4, was used. Compounds of invention were incubated with 0.6 nM [^3H]Prozosin for 60 min. at 25° C. Non-specific binding was estimated in the presence of 10 μM phentolamine. Receptor proteins were filtered and washed, the filters were then counted to determine [^3H]Prozosin specifically bound. Compounds were screened at 1 μM or lower, using 1% DMSO as vehicle. Biochemical assay results are presented as the percent inhibition of specific binding in Table 5.

[3] = target: T3, human recombinant serotonin (5-Hydroxytryptamine) 5-HT6 receptor (Homo sapiens, UniProt P50406); experiment: Serotonin 5-HT6 radioligand binding ([3H]LSD); conditions: compound at 1 μM; read-out: Serotonin (1 μM) 5-HT6, percent inhibition of specific binding
T3 construct: expressed in transfected cells; host or cells: human HeLa cells
Procedure, shortened: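 Human recombinant 5-HT6 receptor from HeLa cells incubated with 1.5 nM [3H]LSD for 120 min at 37° C in 50 mM Tris-HCl pH 7.4, 150 mM NaCl, 2 mM ascorbic acid, 0.001% BSA. Nonspecific binding defined with 5 μM serotonin; bound ligand counted after filtration.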

T3 sequence (P50406 whole entry): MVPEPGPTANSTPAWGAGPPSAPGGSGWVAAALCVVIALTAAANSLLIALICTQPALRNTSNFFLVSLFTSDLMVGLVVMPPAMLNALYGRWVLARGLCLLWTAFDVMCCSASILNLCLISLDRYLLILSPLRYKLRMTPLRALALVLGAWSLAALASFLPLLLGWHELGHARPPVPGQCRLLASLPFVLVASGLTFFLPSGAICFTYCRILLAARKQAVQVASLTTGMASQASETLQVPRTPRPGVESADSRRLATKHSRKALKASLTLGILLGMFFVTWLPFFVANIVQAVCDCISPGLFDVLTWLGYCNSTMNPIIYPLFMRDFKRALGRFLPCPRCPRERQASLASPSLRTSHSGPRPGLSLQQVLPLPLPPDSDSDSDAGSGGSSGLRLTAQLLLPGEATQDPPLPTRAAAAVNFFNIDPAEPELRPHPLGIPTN

Cc1ccc(C(O)Cn2c3c(c4cc(Cl)ccc42)CCN(C)CC3)cc1 (stereo not drawn) [Compound No. 26, 2-(9-chloro-2,3,4,5-tetrahydro-3-methylazepino[4,5-b]indol-6(1H)-yl)-1-p-tolylethanol]
inhibition at 1 µM [1]: 93%
inhibition at 1 µM [2]: 94%
inhibition at 1 µM [3]: 87%

Cc1ccc(C(O)Cn2c3c(c4cc(C)ccc42)CCN(C)CC3)cc1 (stereo not drawn) [Compound No. 27, 2-(2,3,4,5-tetrahydro-3,9-dimethylazepino[4,5-b]indol-6(1H)-yl)-1-p-tolylethanol]
inhibition at 1 µM [1]: 91%
inhibition at 1 µM [2]: 95%
inhibition at 1 µM [3]: 92%

Cc1ccc2c(c1)c1c(n2CCc2ccc(Cl)cc2)CCN(C)CC1 [Compound No. 28, 6-(4-chlorophenethyl)-1,2,3,4,5,6-hexahydro-3,9-dimethylazepino[4,5-b]indole]
inhibition at 1 µM [1]: 94%
inhibition at 1 µM [2]: 94%
inhibition at 1 µM [3]: 95%

CN1CCc2c(n(CCc3ccccc3Cl)c3ccc(Cl)cc23)CC1 [Compound No. 29, 6-(2-chlorophenethyl)-9-chloro-1,2,3,4,5,6-hexahydro-3-methylazepino[4,5-b]indole]
inhibition at 1 µM [1]: 101%
inhibition at 1 µM [2]: 71%
inhibition at 1 µM [3]: 103%

CN1CCc2c(n(CCc3ccc(Cl)cc3)c3ccc(Cl)cc23)CC1 [Compound No. 30, 6-(4-chlorophenethyl)-9-chloro-1,2,3,4,5,6-hexahydro-3-methylazepino[4,5-b]indole]
inhibition at 1 µM [1]: 98%
inhibition at 1 µM [2]: 89%
inhibition at 1 µM [3]: 86%

CC(C)NC(=O)Cn1c2c(c3cc(Cl)ccc31)CCN(C)CC2 [Compound No. 31, 2-(9-chloro-2,3,4,5-tetrahydro-3-methylazepino[4,5-b]indol-6(1H)-yl)-N-isopropylacetamide]
inhibition at 1 µM [1]: 56%
inhibition at 1 µM [2]: 6%
inhibition at 1 µM [3]: 2%

Cc1ccc2c(c1)c1c(n2CC(=O)N2CCCCC2)CCN(C)CC1 [Compound No. 32, 2-(2,3,4,5-tetrahydro-3,9-dimethylazepino[4,5-b]indol-6(1H)-yl)-1-(piperidin-1-yl)ethanone]
inhibition at 1 µM [1]: 48%
inhibition at 1 µM [2]: 4%
inhibition at 1 µM [3]: 4%

C/C(=C\n1c2c(c3cc(C)ccc31)CCN(C)CC2)c1ccc(Cl)cc1 [Compound No. 33, 6-((E)-2-(4-chlorophenyl)prop-1-enyl)-1,2,3,4,5,6-hexahydro-3,9-dimethylazepino[4,5-b]indole]
inhibition at 1 µM [1]: 86%
inhibition at 1 µM [2]: 99%
inhibition at 1 µM [3]: 98%

C/C(=C\n1c2c(c3cc(C)ccc31)CCN(C)CC2)c1ccc(F)cc1 [Compound No. 34, 6-((E)-2-(4-fluorophenyl)prop-1-enyl)-1,2,3,4,5,6-hexahydro-3,9-dimethylazepino[4,5-b]indole]
inhibition at 1 µM [1]: 97%
inhibition at 1 µM [2]: 100%
inhibition at 1 µM [3]: 103%

C=C(Cn1c2c(c3cc(Cl)ccc31)CCN(C)CC2)c1ccc(Cl)cc1 [Compound No. 35, 9-chloro-6-(2-(4-chlorophenyl)allyl)-3-methyl-1,2,3,4,5,6-hexahydroazepino[4,5-b]indole]
inhibition at 1 µM [1]: 91%
inhibition at 1 µM [2]: 96%
inhibition at 1 µM [3]: 102%

C/C(=C\n1c2c(c3cc(Cl)ccc31)CCN(C)CC2)c1ccc(Cl)cc1 [Compound No. 36, 9-chloro-6-((E)-2-(4-chlorophenyl)prop-1-enyl)-1,2,3,4,5,6-hexahydro-3-methylazepino[4,5-b]indole]
inhibition at 1 µM [1]: 83%
inhibition at 1 µM [2]: 95%
inhibition at 1 µM [3]: 99%

CN1CCc2c(n(CC(=O)Nc3ccc(F)cc3)c3ccc(Cl)cc23)CC1 [Compound No. 37, 2-(9-chloro-2,3,4,5-tetrahydro-3-methylazepino[4,5-b]indol-6(1H)-yl)-N-(4-fluorophenyl) acetamide]
inhibition at 1 µM [1]: 85%
inhibition at 1 µM [2]: 14%
inhibition at 1 µM [3]: 12%

Cc1ccc2c(c1)c1c(n2CC(=O)N2CCOCC2)CCN(C)CC1 [Compound No. 38, 2-(2,3,4,5-tetrahydro-3,9-dimethylazepino[4,5-b]indol-6(1H)-yl)-1-morpholinoethanone]
inhibition at 1 µM [1]: 98%
inhibition at 1 µM [2]: 38%
inhibition at 1 µM [3]: 41%

Cc1ccc2c(c1)c1c(n2/C=C/c2ccc(F)cc2)CCN(C)CC1 [Compound No. 39, 6-(4-fluorostyryl)-1,2,3,4,5,6-hexahydro-3,9-dimethylazepino[4,5-b]indole]
inhibition at 1 µM [1]: 97%
inhibition at 1 µM [2]: 99%
inhibition at 1 µM [3]: 103%

CN1CCc2c(n(CC(O)c3ccccc3F)c3ccc(Cl)cc23)CC1 (stereo not drawn) [Compound No. 40, 2-(9-chloro-2,3,4,5-tetrahydro-3-methylazepino[4,5-b]indol-6(1H)-yl)-1-(2-fluorophenyl)ethanol]
inhibition at 1 µM [1]: 97%
inhibition at 1 µM [2]: 64%
inhibition at 1 µM [3]: 101%

Cc1ccc2c(c1)c1c(n2CC(O)c2ccccc2F)CCN(C)CC1 (stereo not drawn) [Compound No. 41, 1-(2-fluorophenyl)-2-(2,3,4,5-tetrahydro-3,9-dimethylazepino[4,5-b]indol-6(1H)-yl)ethanol]
inhibition at 1 µM [1]: 99%
inhibition at 1 µM [2]: 75%
inhibition at 1 µM [3]: 101%

CN1CCc2c(n(CC(O)c3ccncc3)c3ccc(Cl)cc23)CC1 (stereo not drawn) [Compound No. 42, 2-(9-chloro-2,3,4,5-tetrahydro-3-methylazepino[4,5-b]indol-6(1H)-yl)-1-(pyridin-4-yl)ethanol]
inhibition at 1 µM [1]: 101%
inhibition at 1 µM [2]: 73%
inhibition at 1 µM [3]: 73%

Cc1ccc2c(c1)c1c(n2CC(O)c2ccncc2)CCN(C)CC1 (stereo not drawn) [Compound No. 43, 2-(2,3,4,5-tetrahydro-3,9-dimethylazepino[4,5-b]indol-6(1H)-yl)-1-(pyridin-4-yl)ethanol]
inhibition at 1 µM [1]: 91%
inhibition at 1 µM [2]: 70%
inhibition at 1 µM [3]: 48%

Cc1ccc2c(c1)c1c(n2CC(=O)Nc2ccc(F)cc2)CCN(C)CC1 [Compound No. 44, N-(4-fluorophenyl)-2-(2,3,4,5-tetrahydro-3,9-dimethylazepino[4,5-b]indol-6(1H)-yl)acetamide]
inhibition at 1 µM [1]: 41%
inhibition at 1 µM [2]: 10%
inhibition at 1 µM [3]: 1%

Cc1ccc2c(c1)c1c(n2CC(=O)N2CCCC2)CCN(C)CC1 [Compound No. 45, 2-(2,3,4,5-tetrahydro-3,9-dimethylazepino[4,5-b]indol-6(1H)-yl)-1-(pyrrolidin-1-yl)ethanone]
inhibition at 1 µM [1]: 16%
inhibition at 1 µM [2]: 1%
inhibition at 1 µM [3]: 2%

Cc1ccc(CCn2c3c(c4cc(Cl)ccc42)CCN(C)CC3)cc1 [Compound No. 46, 9-chloro-3-methyl-6-(4-methylphenethyl)-1,2,3,4,5,6-hexahydroazepino[4,5-b]indole]
inhibition at 1 µM [1]: 98%
inhibition at 1 µM [2]: 88%
inhibition at 1 µM [3]: 98%

COc1ccc(C(O)Cn2c3c(c4cc(Cl)ccc42)CCN(C)CC3)cc1 (stereo not drawn) [Compound No. 47, 2-(9-chloro-2,3,4,5-tetrahydro-3-methylazepino[4,5-b]indol-6(1H)-yl)-1-(4-methoxyphenyl)ethanol]
inhibition at 1 µM [1]: 98%
inhibition at 1 µM [2]: 97%
inhibition at 1 µM [3]: 77%

COc1ccc(C(O)Cn2c3c(c4cc(C)ccc42)CCN(C)CC3)cc1 (stereo not drawn) [Compound No. 48, 2-(2,3,4,5-tetrahydro-3,9-dimethylazepino[4,5-b]indol-6(1H)-yl)-1-(4-methoxyphenyl) ethanol]
inhibition at 1 µM [1]: 98%
inhibition at 1 µM [2]: 95%
inhibition at 1 µM [3]: 73%
